“And” between values parts separate entries of the source, which are not always exact repeats. Equal entries are not always repeated. Where two headings read alike, the source gives them in different places. Where a SMILES comes first, the peptide text is derived from it. [ ]: non-standard residue; d: D form. The star is where a group is joined. Phe(4-tBu) = CC(C)(C)c1ccc(C[C@H](N)C(=O)O)cc1; Bpa = N[C@@H](Cc1ccc(C(=O)c2ccccc2)cc1)C(=O)O; Benzoyl(4-OMe) = COc1ccc(C(=O)*)cc1; 2Furoyl = O=C(c1ccco1)*; X1 = CSc1nccc(C(=O)*)n1; Bz = O=C(c1ccccc1)*
Legend:
[1] = target: T1, APC (303–739) (Homo sapiens, UniProt P25054); assay: FP competitive assay using tracer 7; format: binding
T1 sequence (P25054 303-739): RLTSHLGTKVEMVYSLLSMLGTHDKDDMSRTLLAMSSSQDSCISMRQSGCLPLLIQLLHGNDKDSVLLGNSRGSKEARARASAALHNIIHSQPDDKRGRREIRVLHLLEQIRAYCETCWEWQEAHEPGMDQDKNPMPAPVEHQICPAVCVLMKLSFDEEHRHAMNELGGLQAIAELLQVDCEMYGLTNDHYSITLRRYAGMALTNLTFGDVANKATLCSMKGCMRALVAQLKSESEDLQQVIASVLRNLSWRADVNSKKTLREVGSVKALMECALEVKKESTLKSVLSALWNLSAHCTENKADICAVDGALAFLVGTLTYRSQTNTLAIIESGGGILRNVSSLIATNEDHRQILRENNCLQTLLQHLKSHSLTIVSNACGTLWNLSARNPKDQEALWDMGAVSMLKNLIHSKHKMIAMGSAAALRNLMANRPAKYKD
Method: (§1) FITC-labeled tracer peptides were obtained from Changzhou Kanglong Biotech Ltd. (Changzhou, Jiangsu, China). […]. The FP signal changes upon tracer binding were measured after 1.5 h of incubation using a Synergy neo microplate reader (BioTek Instruments, Inc.) and plotted against the protein concentration. The corresponding EC50 values were generated by fitting the curves with a nonlinear regression model. […]. To make a working solution, APC (303–739) was diluted in FP buffer (50 mM HEPES, pH 7.5, 300 mM NaCl, 1 mM EDTA, 1 mM DTT). The diluted APC protein (91 μL) was combined with a serial dilution of peptides (4 μL) and incubated at room temperature for 1 h, followed by the addition of 5 μL of 400 nM tracer 7. The FP signals were measured after 1.5 h of incubation at room temperature using a Synergy neo microplate reader. Three controls were included on each plate, i.e., blank (without protein and tracer), 100% inhibition (free tracer only), and 0% inhibition (protein/tracer complex only) controls. All experiments were performed in triplicate. The IC50 values of peptides were calculated by nonlinear regression analysis using GraphPad Prism 7.0 software.

[2] = target: T2, APC (Homo sapiens, UniProt P25054); assay: FP competitive assay using tracer 1; format: binding
T2 sequence (P25054 303-739): T1 sequence (P25054 303-739)
Method: In our previous study, we established an FP assay for screening APC–Asef inhibitors using FITC-labeled tracer 1 (Ac–^176[…][FITC]^195–NH2)[16]. […]. However, their Kd values measured by isothermal titration calorimetry (ITC) actually vary up to more than 20 times[16],[17]. […].
as §1, with “The diluted APC protein (91 μL) was combined with a serial dilution of peptides (4 μL) and incubated at room temperature for 1 h, followed by the addition of 5 μL of 400 nM tracer 7.” left out

[3] = IC50, Tracer 7, Supplementary Table 4
[4] = Conc. 0.0049 μM, individual repeats, Fig3b
[5] = Conc. 0.0098 μM, individual repeats, Fig3b
[6] = Conc. 0.0195 μM, individual repeats, Fig3b
[7] = Conc. 0.0391 μM, individual repeats, Fig3b
[8] = Conc. 0.0781 μM, individual repeats, Fig3b
[9] = Conc. 0.1563 μM, individual repeats, Fig3b
[10] = Conc. 0.3125 μM, individual repeats, Fig3b
[11] = Conc. 0.625 μM, individual repeats, Fig3b
[12] = Conc. 2.5 μM, individual repeats, Fig3b
[13] = Conc. 5 μM, individual repeats, Fig3b
[14] = Conc. 10 μM, individual repeats, Fig3b
[15] = Conc. 20 μM, individual repeats, Fig3b

## CC(C)C[C@H](NC(=O)[C@H](CO)NC(=O)[C@H](CCC(=O)O)NC(=O)CNC(=O)[C@H](C)NC(=O)c1ccccc1)C(=O)N[C@@H](Cc1c[nH]c2ccccc12)C(=O)N[C@@H](CCC(=O)O)C(N)=O [MAI-452] (Bz-AGESLWE-NH2)
[1]; [3]
  IC50: 170 ± 10 nM
[2]
  IC50: 440 ± 150 nM

## CC(C)C[C@H](NC(=O)[C@H](CO)NC(=O)[C@H](CCC(=O)O)NC(=O)CNC(=O)[C@H](C)NC(=O)c1ccco1)C(=O)N[C@@H](Cc1ccc(O)cc1)C(=O)N[C@@H](Cc1ccc(C(=O)c2ccccc2)cc1)C(N)=O [MAI-454] (2Furoyl-AGESLY[Bpa]-NH2)
[2]
  IC50: 480 ± 150 nM

## CSc1nccc(C(=O)N[C@@H](C)C(=O)NCC(=O)N[C@@H](CCC(=O)O)C(=O)N[C@@H](CO)C(=O)N[C@@H](CC(C)C)C(=O)N[C@@H](Cc2ccc(O)cc2)C(=O)N[C@@H](CCC(=O)O)C(N)=O)n1 [MAI-456] (X1-AGESLYE-NH2)
[2]; Supplementary Table 4, read-out: IC50, Tracer 1
  IC50: 570 ± 120 nM

## CC(C)C[C@H](NC(=O)[C@H](CO)NC(=O)[C@H](CCC(=O)O)NC(=O)CNC(=O)[C@H](C)NC(=O)c1ccccc1)C(=O)N[C@@H](Cc1ccc(O)cc1)C(=O)N[C@@H](Cc1ccc(C(=O)c2ccccc2)cc1)C(N)=O [MAI-457] (Bz-AGESLY[Bpa]-NH2)
[2]
  IC50: 590 ± 200 nM

## C[C@H](NC(=O)c1ccccc1)C(=O)NCC(=O)N[C@@H](CCC(=O)O)C(=O)N[C@@H](CO)C(=O)N[C@@H](Cc1ccc(O)cc1)C(=O)N[C@@H](Cc1ccc(O)cc1)C(=O)N[C@@H](CCC(=O)O)C(N)=O [MAI-458] (Bz-AGESYYE-NH2)
[1]; [3]
  IC50: 900 ± 30 nM
[2]
  IC50: 590 ± 140 nM

## CC(C)C[C@H](NC(=O)[C@H](CO)NC(=O)[C@H](CCC(=O)O)NC(=O)CNC(=O)[C@H](C)NC(=O)c1ccccc1)C(=O)N[C@@H](Cc1ccc(O)cc1)C(=O)N[C@H](CCC(=O)O)C(N)=O [MAI-465] (Bz-AGESLY[dE]-NH2)
[2]
  IC50: 750 ± 150 nM

## COc1ccc(C(=O)N[C@@H](C)C(=O)NCC(=O)N[C@@H](CCC(=O)O)C(=O)N[C@@H](CO)C(=O)N[C@@H](CC(C)C)C(=O)N[C@@H](Cc2ccc(O)cc2)C(=O)N[C@@H](Cc2ccc(C(=O)c3ccccc3)cc2)C(N)=O)cc1 [MAI-521] ({Benzoyl(4-OMe)}-AGESLY[Bpa]-NH2)
[1]; Conc. 0.0015 μM, individual repeats, Fig3b
  inhibition at 0.0015 µM: 1.5%
[1]; Conc. 0.0024 μM, individual repeats, Fig3b
  %inhibition: -0.4% and 2.8%
[1]; Conc. 0.0031 μM, individual repeats, Fig3b
  inhibition at 0.0031 µM: 2%
[1]; [4]
  %inhibition: 2.6%
  inhibition at 0.0049 µM: 1.8%
[1]; Conc. 0.006 μM, individual repeats, Fig3b
  inhibition at 0.006 µM: 3.2%
[1]; [5]
  %inhibition: 10.8%
  inhibition at 0.0098 µM: 6.3%
[1]; Conc. 0.012 μM, individual repeats, Fig3b
  inhibition at 0.012 µM: 9%
[1]; [6]
  %inhibition: 24.3%
  inhibition at 0.0195 µM: 16%
[1]; Conc. 0.024 μM, individual repeats, Fig3b
  inhibition at 0.024 µM: 22.1%
[1]; [7]
  %inhibition: 41%
  inhibition at 0.0391 µM: 35.5%
[1]; Conc. 0.049 μM, individual repeats, Fig3b
  inhibition at 0.049 µM: 39.2%
[1]; [8]
  %inhibition: 60.9%
  inhibition at 0.0781 µM: 56.4%
[1]; Conc. 0.098 μM, individual repeats, Fig3b
  inhibition at 0.098 µM: 74.8%
[1]; [9]
  %inhibition: 75%
  inhibition at 0.1563 µM: 74.4%
[1]; Conc. 0.195 μM, individual repeats, Fig3b
  inhibition at 0.195 µM: 77.9%
[1]; [10]
  %inhibition: 86.3%
  inhibition at 0.3125 µM: 86%
[1]; Conc. 0.391 μM, individual repeats, Fig3b
  inhibition at 0.391 µM: 87.6%
[1]; [11]
  %inhibition: 93.8%
  inhibition at 0.625 µM: 92%
[1]; Conc. 0.781 μM, individual repeats, Fig3b
  inhibition at 0.781 µM: 92.8%
[1]; Conc. 1.25 μM, individual repeats, Fig3b
  inhibition at 1.25 µM: 95.3%
[1]; Conc. 1.563 μM, individual repeats, Fig3b
  inhibition at 1.563 µM: 95.7%
[1]; [12]
  %inhibition: 98.9%
  inhibition at 2.5 µM: 96.1%
[1]; Conc. 3.125 μM, individual repeats, Fig3b
  inhibition at 3.125 µM: 97.1%
[1]; [13]
  %inhibition: 100.8%
  inhibition at 5 µM: 96.6%
[1]; Conc. 6.25 μM, individual repeats, Fig3b
  inhibition at 6.25 µM: 98.3%
[1]; [14]
  %inhibition: 101.1%
  inhibition at 10 µM: 97.4%
[1]; Conc. 12.5 μM, individual repeats, Fig3b
  inhibition at 12.5 µM: 97.7%
[1]; [15]
  %inhibition: 101.7%
  inhibition at 20 µM: 97%
[1]; IC50 Repeat 1, tracer 7
  IC50: 53.6 nM
[1]; IC50 Repeat 2, tracer 7
  IC50: 54 nM
[1]; IC50 Repeat 3, tracer 7
  IC50: 51.6 nM
[1]; IC50 mean, tracer 7, mean of three repeats
  IC50: 53.1 nM
[1]; Repeat 1, Conc. 0.0015 μM
  mean (FP signal, FigS5): 296.3
[1]; Repeat 1, Conc. 0.0031 μM
  mean (FP signal, FigS5): 295
[1]; Repeat 1, Conc. 0.006 μM
  mean (FP signal, FigS5): 292
[1]; Repeat 1, Conc. 0.012 μM
  mean (FP signal, FigS5): 277.7
[1]; Repeat 1, Conc. 0.024 μM
  mean (FP signal, FigS5): 245
[1]; Repeat 1, Conc. 0.049 μM
  mean (FP signal, FigS5): 202.3
[1]; Repeat 1, Conc. 0.098 μM
  mean (FP signal, FigS5): 113.7
[1]; Repeat 1, Conc. 0.195 μM
  mean (FP signal, FigS5): 106
[1]; Repeat 1, Conc. 0.391 μM
  mean (FP signal, FigS5): 82
[1]; Repeat 1, Conc. 0.781 μM
  mean (FP signal, FigS5): 69
[1]; Repeat 1, Conc. 1.563 μM
  mean (FP signal, FigS5): 61.7
[1]; Repeat 1, Conc. 3.125 μM
  mean (FP signal, FigS5): 58.3
[1]; Repeat 1, Conc. 6.25 μM
  mean (FP signal, FigS5): 55.3
[1]; Repeat 1, Conc. 12.5 μM
  mean (FP signal, FigS5): 56.7
[1]; Repeat 2, Conc. 0.0024 μM
  mean (FP signal, FigS5): 282.7
[1]; Repeat 2, Conc. 0.0049 μM
  mean (FP signal, FigS5): 277.5
[1]; Repeat 2, Conc. 0.0098 μM
  mean (FP signal, FigS5): 267
[1]; Repeat 2, Conc. 0.0195 μM
  mean (FP signal, FigS5): 244.3
[1]; Repeat 2, Conc. 0.0391 μM
  mean (FP signal, FigS5): 199
[1]; Repeat 2, Conc. 0.0781 μM
  mean (FP signal, FigS5): 150.3
[1]; Repeat 2, Conc. 0.1563 μM
  mean (FP signal, FigS5): 108.7
[1]; Repeat 2, Conc. 0.3125 μM
  mean (FP signal, FigS5): 81.7
[1]; Repeat 2, Conc. 0.625 μM
  mean (FP signal, FigS5): 67.7
[1]; Repeat 2, Conc. 1.25 μM
  mean (FP signal, FigS5): 60
[1]; Repeat 2, Conc. 2.5 μM
  mean (FP signal, FigS5): 58
[1]; Repeat 2, Conc. 5 μM
  mean (FP signal, FigS5): 57
[1]; Repeat 2, Conc. 10 μM
  mean (FP signal, FigS5): 55
[1]; Repeat 2, Conc. 20 μM
  mean (FP signal, FigS5): 56
[1]; Repeat 3, Conc. 0.0024 μM
  mean (FP signal, FigS5): 286
[1]; Repeat 3, Conc. 0.0049 μM
  mean (FP signal, FigS5): 286.5
[1]; Repeat 3, Conc. 0.0098 μM
  mean (FP signal, FigS5): 266.5
[1]; Repeat 3, Conc. 0.0195 μM
  mean (FP signal, FigS5): 234
[1]; Repeat 3, Conc. 0.0391 μM
  mean (FP signal, FigS5): 193.7
[1]; Repeat 3, Conc. 0.0781 μM
  mean (FP signal, FigS5): 145.7
[1]; Repeat 3, Conc. 0.1563 μM
  mean (FP signal, FigS5): 111.7
[1]; Repeat 3, Conc. 0.3125 μM
  mean (FP signal, FigS5): 84.3
[1]; Repeat 3, Conc. 0.625 μM
  mean (FP signal, FigS5): 66.3
[1]; Repeat 3, Conc. 1.25 μM
  mean (FP signal, FigS5): 58.7
[1]; Repeat 3, Conc. 2.5 μM
  mean (FP signal, FigS5): 54
[1]; Repeat 3, Conc. 5 μM
  mean (FP signal, FigS5): 49.3
[1]; Repeat 3, Conc. 10 μM
  mean (FP signal, FigS5): 48.7
[1]; Repeat 3, Conc. 20 μM
  mean (FP signal, FigS5): 47.3

## COc1ccc(C(=O)N[C@@H](C)C(=O)NCC(=O)N[C@@H](CCC(=O)O)C(=O)N[C@@H](CO)C(=O)N[C@@H](CC(C)C)C(=O)N[C@@H](Cc2ccc(O)cc2)C(=O)N[C@@H](Cc2ccc(C(C)(C)C)cc2)C(N)=O)cc1 [MAI-522] ({Benzoyl(4-OMe)}-AGESLY[Phe(4-tBu)]-NH2)
[1]; tracer 7, mean of three repeats, read-out: IC50 mean
  IC50: 147 nM
[1]; tracer 7, read-out: IC50 Repeat 1
  IC50: 166 nM
[1]; tracer 7, read-out: IC50 Repeat 2
  IC50: 144 nM
[1]; tracer 7, read-out: IC50 Repeat 3
  IC50: 131 nM
